Data taken from patent US8575306B2, “Target and method for inhibition of bacterial RNA polymerase” (Rutgers, The State University of New Jersey, priority 2002, dated 2013).
Where a SMILES comes first, the peptide text is derived from it.

Assays:
[1] = test system: Strain DH5α transformed with a pRL663 derivative (substituted RNAP β′ subunit); assay: Minimum bacteriocidal concentration (MBC) assays, MccJ25-resistant rpoC mutants; assay type: cell-based, Escherichia coli; details: for MBC (minimum bacteriocidal concentration): 2 hr at 37° C.
Method: (RNAP β′ subunit comprises nearly one-half of all residues of RNAP and comprises all residues of the RNAP secondary channel). Mutagenesis using error-prone PCR was performed (Zhou (1991) Nucl. Acids Res. 19, 6052; Zhou et al., (1993) Proc. Natl. Acad. Sci. USA 90, 6081-6085) of five DNA segments spanning the length of a plasmid-borne rpoC gene (Table 1). Overall, 20 mutagenesis reactions were performed, ˜100,000 candidates were analyzed, and 22 independent plasmid-linked MccJ25-resistant mutants were isolated (Table 1). […] Complementation assays indicate that all 22 MccJ25-resistant mutants can complement an rpoC^ts mutant for growth at the non-permissive temperature, confirming that each encodes a β′ derivative functional in transcription—indeed sufficiently functional in transcription to support viability (Table 2, column 4).
A saturation mutagenesis using a set often “doped” oligodeoxyribonucleotide primers, designed to introduce all possible nucleotide substitutions at all positions of all codons for residues that line the RNAP secondary channel was performed (sequences in Table 3; methods essentially as in the following references (Ner et al., (1988) DNA 7, 127-134; Hermes et al., (1989) Gene 84, 143-151; and Niu et al., (1994) J. Mol. Biol. 243, 595-602). In total, 23 mutagenesis reactions were performed, ˜40,000 candidates were analyzed, and 105 independent plasmid-linked MccJ25-resistant mutants were isolated and characterized (Table 4).

[2] = molecular target: T1, RNAP holoenzyme (Escherichia coli, UniProt P0A8T7); assay: Transcription assays (abortive initiation and elongation, lacUV5 promoter); assay type: biochemical
T1 construct: RNAP holoenzyme was prepared from, strain XE54/pREII-NHα; made in house; host or cells: E. coli strain XE54/pREII-NHα
Method: MccJ25 interferes with a process common to both abortive initiation and elongation—i.e., NTP uptake, phosphodiester-bond formation, or translocation.
Following 15 min at 37° C., 0.5 μl 1 mg/ml heparin, was added, and, following a further 2 min at 37° C., RNA synthesis was initiated by addition of 2 μl 5 mM ApA and 125 μM (or 250 jiM, 500 μM, and 1 mM) each of [α-^32P]UTP (0.6 Bq/fmol), ATP, CTP, GTP. Following 5 min at 37° C., reactions were terminated by addition of 10 μl 80% formamide, 10 mM EDTA, 0.04% bromophenol blue, and 0.04% xylene cyanol. Products were heated 10 min at 90° C., resolved by urea-PAGE (Sambrook and Russell (2001). Molecular Cloning: A Laboratory Manual (Cold Spring Harbor, N.Y., Cold Spring Harbor Laboratory)), and quantified using an x/y storage-phosphor scanner (Storm 860; Molecular Dynamics, Inc.). Data were fit to full-competitive, partial-competitive, full-noncompetitive, partial-noncompetitive, full-uncompetitive, partial-uncompetitive, full-mixed, and partial-mixed models of inhibition using the Fit-To-Model feature of the SigmaPlot Enzyme Kinetics Module (SPSS, Inc.).

[3] = test system: RNAP; assay: Cross-resistance with rifampicin; details: unpublished data
[4] = molecular target: RNAP (Escherichia coli, UniProt P0A8T7); details: crude cell extracts; Delgado et al. (2001); cited from earlier work
[5] = MccJ25 at 1, 10, or 100 μM, 5 min at 37° C.

T1 sequence (P0A7Z4 whole entry): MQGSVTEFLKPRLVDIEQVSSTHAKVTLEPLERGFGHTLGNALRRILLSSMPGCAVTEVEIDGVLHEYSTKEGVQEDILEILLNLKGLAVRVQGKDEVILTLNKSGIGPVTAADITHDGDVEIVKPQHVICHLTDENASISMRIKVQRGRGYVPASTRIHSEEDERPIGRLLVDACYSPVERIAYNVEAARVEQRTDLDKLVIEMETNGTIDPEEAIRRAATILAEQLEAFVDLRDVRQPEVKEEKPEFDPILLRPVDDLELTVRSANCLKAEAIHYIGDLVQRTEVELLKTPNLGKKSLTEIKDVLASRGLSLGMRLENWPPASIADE
T1 sequence (P0A800 whole entry, further chain): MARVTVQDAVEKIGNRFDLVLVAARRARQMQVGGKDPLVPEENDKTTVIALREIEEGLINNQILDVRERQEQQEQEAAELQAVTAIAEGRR
T1 sequence (P00579 whole entry, further chain): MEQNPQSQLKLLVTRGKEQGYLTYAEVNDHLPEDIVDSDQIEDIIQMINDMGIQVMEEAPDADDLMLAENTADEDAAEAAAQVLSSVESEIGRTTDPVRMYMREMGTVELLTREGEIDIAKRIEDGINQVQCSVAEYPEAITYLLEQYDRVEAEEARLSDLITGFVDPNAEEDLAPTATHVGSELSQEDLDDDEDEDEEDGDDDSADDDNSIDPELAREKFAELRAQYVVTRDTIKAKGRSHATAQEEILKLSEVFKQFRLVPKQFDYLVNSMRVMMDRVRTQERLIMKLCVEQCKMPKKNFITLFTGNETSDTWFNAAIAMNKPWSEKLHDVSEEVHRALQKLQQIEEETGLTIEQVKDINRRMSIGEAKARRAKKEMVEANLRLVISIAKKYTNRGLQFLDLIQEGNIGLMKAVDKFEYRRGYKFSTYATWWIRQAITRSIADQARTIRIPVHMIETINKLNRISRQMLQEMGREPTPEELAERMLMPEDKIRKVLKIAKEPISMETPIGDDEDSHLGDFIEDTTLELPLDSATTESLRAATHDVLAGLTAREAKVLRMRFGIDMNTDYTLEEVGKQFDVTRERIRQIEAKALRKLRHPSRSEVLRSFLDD
T1 sequence (P0A8T7 whole entry): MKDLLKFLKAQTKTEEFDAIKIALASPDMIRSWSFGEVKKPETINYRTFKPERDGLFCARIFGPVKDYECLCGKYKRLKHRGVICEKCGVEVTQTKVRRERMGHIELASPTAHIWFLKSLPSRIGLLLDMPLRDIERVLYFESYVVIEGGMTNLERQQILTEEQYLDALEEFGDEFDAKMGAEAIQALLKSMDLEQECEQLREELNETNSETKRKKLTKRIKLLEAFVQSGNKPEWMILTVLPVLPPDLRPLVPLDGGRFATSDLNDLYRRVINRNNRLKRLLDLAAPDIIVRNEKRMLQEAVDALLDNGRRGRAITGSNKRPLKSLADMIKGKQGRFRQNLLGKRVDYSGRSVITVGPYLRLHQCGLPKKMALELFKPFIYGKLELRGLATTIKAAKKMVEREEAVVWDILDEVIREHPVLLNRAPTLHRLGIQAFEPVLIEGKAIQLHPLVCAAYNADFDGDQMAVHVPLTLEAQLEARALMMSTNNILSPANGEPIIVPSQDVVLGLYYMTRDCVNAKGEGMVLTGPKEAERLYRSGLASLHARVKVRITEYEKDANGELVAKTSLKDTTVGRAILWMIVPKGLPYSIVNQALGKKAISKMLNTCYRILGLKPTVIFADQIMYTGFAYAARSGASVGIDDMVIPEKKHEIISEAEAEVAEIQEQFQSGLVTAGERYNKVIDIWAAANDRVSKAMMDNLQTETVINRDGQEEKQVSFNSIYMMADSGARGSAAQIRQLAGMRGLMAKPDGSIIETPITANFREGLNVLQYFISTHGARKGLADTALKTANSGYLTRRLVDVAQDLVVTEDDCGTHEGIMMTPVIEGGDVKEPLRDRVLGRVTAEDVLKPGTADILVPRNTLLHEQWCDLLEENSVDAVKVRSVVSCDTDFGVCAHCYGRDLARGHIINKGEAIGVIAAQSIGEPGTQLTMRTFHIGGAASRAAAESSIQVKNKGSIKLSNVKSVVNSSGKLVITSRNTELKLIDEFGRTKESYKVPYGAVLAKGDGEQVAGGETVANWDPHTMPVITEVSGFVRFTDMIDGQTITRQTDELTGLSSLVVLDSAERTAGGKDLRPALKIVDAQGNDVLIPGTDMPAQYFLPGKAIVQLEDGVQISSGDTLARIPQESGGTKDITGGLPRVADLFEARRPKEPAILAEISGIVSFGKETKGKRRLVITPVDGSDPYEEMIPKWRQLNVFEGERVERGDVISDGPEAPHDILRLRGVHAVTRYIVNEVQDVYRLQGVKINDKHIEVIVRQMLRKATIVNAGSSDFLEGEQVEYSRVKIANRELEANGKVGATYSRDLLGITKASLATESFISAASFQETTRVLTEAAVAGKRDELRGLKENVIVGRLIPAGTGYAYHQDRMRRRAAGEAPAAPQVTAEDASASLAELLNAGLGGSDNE
T1 sequence (P0A8V2 whole entry, further chain): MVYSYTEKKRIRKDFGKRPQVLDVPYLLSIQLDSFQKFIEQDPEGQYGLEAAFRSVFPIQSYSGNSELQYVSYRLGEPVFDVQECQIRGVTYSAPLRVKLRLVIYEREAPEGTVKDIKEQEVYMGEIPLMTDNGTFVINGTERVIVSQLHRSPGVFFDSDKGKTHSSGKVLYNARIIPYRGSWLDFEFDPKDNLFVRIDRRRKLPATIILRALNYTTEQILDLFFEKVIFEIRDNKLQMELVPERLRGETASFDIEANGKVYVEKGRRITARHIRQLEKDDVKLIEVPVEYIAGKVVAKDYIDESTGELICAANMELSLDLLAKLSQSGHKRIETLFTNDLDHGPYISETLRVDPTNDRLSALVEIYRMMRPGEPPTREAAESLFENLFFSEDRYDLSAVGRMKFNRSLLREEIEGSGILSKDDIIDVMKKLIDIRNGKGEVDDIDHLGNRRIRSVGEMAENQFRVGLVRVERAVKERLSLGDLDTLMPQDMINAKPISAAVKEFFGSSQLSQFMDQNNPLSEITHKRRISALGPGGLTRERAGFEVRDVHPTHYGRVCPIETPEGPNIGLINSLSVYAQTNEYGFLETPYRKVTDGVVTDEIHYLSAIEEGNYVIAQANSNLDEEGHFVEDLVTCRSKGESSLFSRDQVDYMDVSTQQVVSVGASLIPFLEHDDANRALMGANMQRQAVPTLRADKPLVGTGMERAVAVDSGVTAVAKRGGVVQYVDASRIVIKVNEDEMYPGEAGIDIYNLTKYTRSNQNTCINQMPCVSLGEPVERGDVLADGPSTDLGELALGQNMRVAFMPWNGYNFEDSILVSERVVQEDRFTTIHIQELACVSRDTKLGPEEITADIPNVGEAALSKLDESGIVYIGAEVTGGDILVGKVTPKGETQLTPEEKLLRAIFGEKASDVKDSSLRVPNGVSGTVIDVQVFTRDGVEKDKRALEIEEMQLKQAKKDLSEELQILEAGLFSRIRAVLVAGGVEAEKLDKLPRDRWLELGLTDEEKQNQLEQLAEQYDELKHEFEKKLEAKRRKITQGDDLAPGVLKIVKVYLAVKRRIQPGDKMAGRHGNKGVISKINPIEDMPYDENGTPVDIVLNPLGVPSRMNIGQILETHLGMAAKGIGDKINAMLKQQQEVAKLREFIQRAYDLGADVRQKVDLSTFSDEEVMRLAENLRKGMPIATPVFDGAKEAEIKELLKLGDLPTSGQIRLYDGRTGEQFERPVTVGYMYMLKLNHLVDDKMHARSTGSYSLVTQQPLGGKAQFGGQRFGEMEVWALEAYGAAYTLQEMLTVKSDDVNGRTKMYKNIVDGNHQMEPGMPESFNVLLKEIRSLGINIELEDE

SMILES: CC[C@H](C)[C@H](NC(=O)CNC(=O)[C@@H](NC(=O)[C@H](Cc1ccccc1)NC(=O)[C@H](Cc1ccc(O)cc1)NC(=O)[C@@H]1CCC(=O)NCC(=O)NCC(=O)N[C@@H](C)C(=O)NCC(=O)N[C@@H](Cc2c[nH]cn2)C(=O)N[C@@H](C(C)C)C(=O)N2CCC[C@H]2C(=O)N1)C(C)C)C(=O)NCC(=O)N[C@H](C(=O)N1CCC[C@H]1C(=O)N[C@H](C(=O)N[C@@H](CO)C(=O)N[C@@H](Cc1ccccc1)C(=O)N[C@@H](Cc1ccc(O)cc1)C(=O)NCC(=O)O)[C@@H](C)CC)[C@@H](C)O [MccJ25] (HELM PEPTIDE1{G.G.A.G.H.V.P.E.Y.F.V.G.I.G.T.P.I.S.F.Y.G}$PEPTIDE1,PEPTIDE1,1:R1-8:R3$$$V2.0)
- increase in MBC ([1]; 18 of 22 MccJ25-resistant mutants from random mutagenesis): ≥ 50 fold
- increase in MBC ([1]; all 22 MccJ25-resistant mutants from random mutagenesis): ≥ 50 fold
- MBC (minimum bacteriocidal concentration) ([1]; β′ 428 Thr->Asn): 0.5 mg/mi
- MBC (minimum bacteriocidal concentration) ([1]; β′ 428 Thr->Ile): 0.5 mg/mi
- MBC (minimum bacteriocidal concentration) ([1]; β′ 429 Leu->Gln): 0.5 mg/mi
- MBC (minimum bacteriocidal concentration) ([1]; β′ 430 His->Tyr): 0.5 mg/mi
- MBC (minimum bacteriocidal concentration) ([1]; β′ 498 Pro->Gln): 1 mg/mi
- MBC (minimum bacteriocidal concentration) ([1]; β′ 498 Pro->Leu): 1 mg/mi
- MBC (minimum bacteriocidal concentration) ([1]; β′ 503 Ser->Pro): 0.5 mg/mi
- MBC (minimum bacteriocidal concentration) ([1]; β′ 503 Ser->Tyr): 0.5 mg/mi
- MBC (minimum bacteriocidal concentration) ([1]; β′ 504 Gln->Arg): 0.5 mg/mi
- MBC (minimum bacteriocidal concentration) ([1]; β′ 504 Gln->Glu): 0.5 mg/mi
- MBC (minimum bacteriocidal concentration) ([1]; β′ 508 Leu->Val): 0.05 mg/mi
- MBC (minimum bacteriocidal concentration) ([1]; β′ 680 Asn->Lys): 0.5 mg/mi
- MBC (minimum bacteriocidal concentration) ([1]; β′ 684 Asp->Ala): 1 mg/mi
- MBC (minimum bacteriocidal concentration) ([1]; β′ 684 Asp->Glu): 0.5 mg/mi
- MBC (minimum bacteriocidal concentration) ([1]; β′ 684 Asp->Tyr): 0.5 mg/mi
- MBC (minimum bacteriocidal concentration) ([1]; β′ 684 Asp->Vai): 0.5 mg/mi
- MBC (minimum bacteriocidal concentration) ([1]; β′ 732 Gly->Asp): 0.1 mg/mi
- MBC (minimum bacteriocidal concentration) ([1]; β′ 733 Ser->Phe): 0.1 mg/mi
- MBC (minimum bacteriocidal concentration) ([1]; β′ 733 Ser->Tyr): 0.1 mg/mi
- MBC (minimum bacteriocidal concentration) ([1]; β′ 733 Ser->Val): 0.5 mg/mi
- MBC (minimum bacteriocidal concentration) ([1]; β′ 735 Ala->Δ): 1 mg/mi
- MBC (minimum bacteriocidal concentration) ([1]; β′ 736 Gln->Pro): 0.5 mg/mi
- MBC (minimum bacteriocidal concentration) ([1]; β′ 738 Arg->Leu): 0.05 mg/mi
- MBC (minimum bacteriocidal concentration) ([1]; β′ 744 Arg->His): 0.05 mg/mi
- MBC (minimum bacteriocidal concentration) ([1]; β′ 744 Arg->Pro): 0.05 mg/mi
- MBC (minimum bacteriocidal concentration) ([1]; β′ 748 Ala->Pro): 0.1 mg/mi
- MBC (minimum bacteriocidal concentration) ([1]; β′ 775 Ser->Cys): 0.5 mg/mi
- MBC (minimum bacteriocidal concentration) ([1]; β′ 776 Thr->Ile): 0.5 mg/mi
- MBC (minimum bacteriocidal concentration) ([1]; β′ 777 His->Pro): 0.5 mg/mi
- MBC (minimum bacteriocidal concentration) ([1]; β′ 777 His->Tyr): 1 mg/mi
- MBC (minimum bacteriocidal concentration) ([1]; β′ 779 Ala->Gly): 0.5 mg/mi
- MBC (minimum bacteriocidal concentration) ([1]; β′ 779 Ala->Pro): 0.5 mg/mi
- MBC (minimum bacteriocidal concentration) ([1]; β′ 779 Ala->Thr): 1 mg/mi
- MBC (minimum bacteriocidal concentration) ([1]; β′ 780 Arg->Cys): 1 mg/mi
- MBC (minimum bacteriocidal concentration) ([1]; β′ 782 Gly->Ala): 1 mg/mi
- MBC (minimum bacteriocidal concentration) ([1]; β′ 783 Leu->Pro): 0.1 mg/mi
- MBC (minimum bacteriocidal concentration) ([1]; β′ 784 Ala->Glu): 0.5 mg/mi
- MBC (minimum bacteriocidal concentration) ([1]; β′ 785 Asp->Gly): 0.5 mg/mi
- MBC (minimum bacteriocidal concentration) ([1]; β′ 786 Thr->Ala): 0.5 mg/mi
- MBC (minimum bacteriocidal concentration) ([1]; β′ 786 Thr->Ile): 0.5 mg/mi
- MBC (minimum bacteriocidal concentration) ([1]; β′ 788 Leu->Met): 1 mg/mi
- MBC (minimum bacteriocidal concentration) ([1]; β′ 789 Lys->Arg): 0.5 mg/mi
- MBC (minimum bacteriocidal concentration) ([1]; β′ 789 Lys->Asn): 1 mg/mi
- MBC (minimum bacteriocidal concentration) ([1]; β′ 789 Lys->Gln): 1 mg/mi
- MBC (minimum bacteriocidal concentration) ([1]; β′ 790 Thr->Ala): 1 mg/mi
- MBC (minimum bacteriocidal concentration) ([1]; β′ 790 Thr->Asn): 0.5 mg/mi
- MBC (minimum bacteriocidal concentration) ([1]; β′ 790 Thr->Ile): 1 mg/mi
- MBC (minimum bacteriocidal concentration) ([1]; β′ 790 Thr->Ser): 0.5 mg/mi
- MBC (minimum bacteriocidal concentration) ([1]; β′ 922 Cys->Tyr): 0.5 mg/mi
- MBC (minimum bacteriocidal concentration) ([1]; β′ 926 Pro->Ser): 0.5 mg/mi
- MBC (minimum bacteriocidal concentration) ([1]; β′ 927 Gly->Cys): 1 mg/mi
- MBC (minimum bacteriocidal concentration) ([1]; β′ 927 Gly->Ser): 1 mg/mi
- MBC (minimum bacteriocidal concentration) ([1]; β′ 930 Leu->Met): 1 mg/mi
- MBC (minimum bacteriocidal concentration) ([1]; β′ 931 Thr->Ala): 1 mg/mi
- MBC (minimum bacteriocidal concentration) ([1]; β′ 931 Thr->Ile): 1 mg/mi
- MBC (minimum bacteriocidal concentration) ([1]; β′ 932 Met->Ile): 1 mg/mi
- MBC (minimum bacteriocidal concentration) ([1]; β′ 933 Arg->Cys): 1 mg/mi
- MBC (minimum bacteriocidal concentration) ([1]; β′ 1136 Gly->Ala): 0.5 mg/mi
- MBC (minimum bacteriocidal concentration) ([1]; β′ 1136 Gly->Cys): 1 mg/mi
- MBC (minimum bacteriocidal concentration) ([1]; β′ 1137 Gly->Aia): 0.5 mg/mi
- MBC (minimum bacteriocidal concentration) ([1]; β′ 1137 Gly->Arg): 1 mg/mi
- MBC (minimum bacteriocidal concentration) ([1]; β′ 1240 Val->Glu): 0.5 mg/mi
- MBC (minimum bacteriocidal concentration) ([1]; β′ 1241 Tyr->Cys): 0.1 mg/mi
- MBC (minimum bacteriocidal concentration) ([1]; β′ 1241 Tyr->His): 0.1 mg/mi
- MBC (minimum bacteriocidal concentration) ([1]; β′ 1241 Tyr->Ser): 0.1 mg/mi
- MBC (minimum bacteriocidal concentration) ([1]; β′ 1244 Gln->Glu): 0.1 mg/mi
- MBC (minimum bacteriocidal concentration) ([1]; β′ 1244 Gln->Leu): 0.5 mg/mi
- MBC (minimum bacteriocidal concentration) ([1]; β′ 1244 Gln->Pro): 0.1 mg/mi
- MBC (minimum bacteriocidal concentration) ([1]; β′ 1247 Lys->Gln): 0.1 mg/mi
- MBC (minimum bacteriocidal concentration) ([1]; β′ 1247 Lys->Glu): 0.1 mg/mi
- MBC (minimum bacteriocidal concentration) ([1]; β′ 1248 lle->Ser): 0.1 mg/mi
- MBC (minimum bacteriocidal concentration) ([1]; β′ multiple-substitution mutant 493 Pro->Thr, 498 Pro->Thr): 0.1 mg/mi
- MBC (minimum bacteriocidal concentration) ([1]; β′ multiple-substitution mutant 732 Gly->Asp, 733 Ser->Ala): 0.1 mg/mi
- MBC (minimum bacteriocidal concentration) ([1]; β′ multiple-substitution mutant 732 Gly->Asp, 735 Gly->Thr): 0.5 mg/mi
- MBC (minimum bacteriocidal concentration) ([1]; β′ multiple-substitution mutant 733 Ser->Val, 734 Ala->Gly): 0.1 mg/mi
- MBC (minimum bacteriocidal concentration) ([1]; β′ multiple-substitution mutant 777 His->Ser, 778 Gly->Ala): 0.5 mg/mi
- inhibition of formation of abortive products (7 nt and 8 nt RNA species) [2, 5]: inhibits
- inhibition of formation of the full-length product (26 nt RNA species) [2, 5]: inhibits
- NTP-concentration dependence of inhibition ([2]; NTP 12.5, 25, 50 and 100 μM): NTP-concentration-dependent
- mode of inhibition ([2]; with respect to NTPs, 7-mer and 8-mer abortive products): partial competitive
- cross-resistance with rifampicin [3]: do not exhibit cross-resistance
- inhibition of RNAP-dependent transcription [4]: inhibits
